The values that follow come from patent US9730914B2, “3,5-diaminopyrazole kinase inhibitors” (Axikin Pharmaceuticals, Inc., priority 2014, dated 2017).

Assay [1] deals with T1, kinase domain protein of RC kinase (RCK) (Homo sapiens, UniProt Q56UN5).
T1 construct: made in house; host or cells: E. coli BL21-derived host (T7 phage) or HEK-293
T1 sequence (Q56UN5 1061-1324 limits assumed): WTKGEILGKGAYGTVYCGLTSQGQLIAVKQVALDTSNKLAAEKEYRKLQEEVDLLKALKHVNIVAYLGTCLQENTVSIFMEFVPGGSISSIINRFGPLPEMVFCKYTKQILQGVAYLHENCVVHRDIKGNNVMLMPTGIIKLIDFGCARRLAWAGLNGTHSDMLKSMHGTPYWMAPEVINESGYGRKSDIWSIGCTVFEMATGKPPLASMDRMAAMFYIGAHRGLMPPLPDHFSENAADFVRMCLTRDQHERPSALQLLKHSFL
The assay can be described thus: Kinase competition binding assay (Kd, qPCR readout), RC kinase. Particulars: Kd class, read-out: RCK Activity Level. As to the method:
(§1) For most assays, kinase-tagged T7 phage strains were prepared in an E. coli host derived from the BL21 strain. E. coli were grown to log-phase and infected with T7 phage and incubated with shaking at 32° C. until lysis. The lysates were centrifuged and filtered to remove cell debris. The remaining kinases were produced in HEK-293 cells and subsequently tagged with DNA for quantitative PCR (qPCR) detection.
(§2) Streptavidin-coated magnetic beads were treated with biotinylated small molecule ligands for 30 minutes at room temperature to generate affinity resins for kinase assays. The liganded beads were blocked with excess biotin and washed with blocking buffer (SeaBlock (Pierce), 1% BSA, 0.05% Tween 20, 1 mM DTT) to remove unbound ligand and to reduce nonspecific binding. Binding reactions were assembled by combining kinases, liganded affinity beads, and test compounds in 1× binding buffer (20% SeaBlock, 0.17×PBS, 0.05% Tween 20, 6 mM DTT). All reactions were performed in polystyrene 96-well plates in a final volume of 0.135 mL. The assay plates were incubated at room temperature with shaking for 1 hour and the affinity beads were washed with wash buffer (1×PBS, 0.05% Tween 20). The beads were then re-suspended in elution buffer (1×PBS, 0.05% Tween 20, 0.5 μM non-biotinylated affinity ligand) and incubated at room temperature with shaking for 30 minutes. The kinase concentration in the eluates was measured by qPCR.
(§3) An 11-point 3-fold serial dilution of each test compound was prepared in 100% DMSO at 100× final test concentration and subsequently diluted to 1× in the assay (final DMSO concentration=1%). Most Kd values were determined using a compound top concentration=30,000 nM. If the initial Kd determined was <0.5 nM, (the lowest concentration tested), the measurement was repeated with a serial dilution starting at a lower top concentration. A more detailed description of this assay may be found in Fabian, M. A. et al. Nat. Biotechnol. 2005, 23, 329-336, which is incorporated herein in its entirety.
(§4) The biological results of inhibition of the kinase domain protein of RC kinase (RCK) and JAK2 and JAK3 are summarized in Tables 2 and 3, wherein A represents a Kd of <50 nM; B represents 50 nM<Kd<100 nM; C represents 100 nM<Kd<1000 nM; and D represents a Kd>1000 nM.
In general terms: Quantitative PCR measures a nucleic acid by following its amplification.

The target of assay [2] is T2, JAK3 (Homo sapiens, UniProt P52333).
T2 construct: made in house; host or cells: E. coli BL21-derived host (T7 phage) or HEK-293
T2 sequence (P52333 811-1124 limits assumed): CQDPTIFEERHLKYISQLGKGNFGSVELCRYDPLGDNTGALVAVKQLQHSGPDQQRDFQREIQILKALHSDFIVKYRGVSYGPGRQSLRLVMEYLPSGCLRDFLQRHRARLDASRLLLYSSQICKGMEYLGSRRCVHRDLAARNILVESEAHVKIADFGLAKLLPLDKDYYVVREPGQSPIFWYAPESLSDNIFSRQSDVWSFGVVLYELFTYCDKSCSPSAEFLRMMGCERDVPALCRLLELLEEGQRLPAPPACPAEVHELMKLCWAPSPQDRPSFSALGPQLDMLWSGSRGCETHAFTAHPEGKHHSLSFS
As to the kind of experiment: Kinase competition binding assay (Kd, qPCR readout), JAK3. Particulars: for Kd: Kd class, JAK3, read-out: JAK3 Activity Level; for RCK:JAK3 selectivity ratio: ratio Kd (JAK3): Kd (RCK). As to the method:
as §1, §2, §3, §4
Similarly, RCK:JAK3 selectivity, as measured by the ratio Kd (JAK3): Kd (RCK) is represented as follows: A represents Kd (JAK3): Kd (RCK)>100; B represents 10<Kd (JAK3): Kd (RCK)<100; C represents 1<Kd (JAK3): Kd (RCK)<10; and D represents Kd (JAK3): Kd(RCK)<1.

Assay [3] addresses T3, JAK2 (Homo sapiens, UniProt O60674).
T3 construct: made in house; host or cells: E. coli BL21-derived host (T7 phage) or HEK-293
The assay can be described thus: Kinase competition binding assay (Kd, qPCR readout), JAK2. Particulars: for Kd: Kd class, JAK2, read-out: JAK2 Activity Level; for RCK:JAK2 selectivity ratio: ratio Kd (JAK2): Kd(RCK). As to the method: as §1, §2, §3, §4
Additionally, RCK:JAK2 selectivity, as measured by the ratio Kd (JAK2): Kd(RCK) is represented as follows: A represents Kd (JAK2): Kd (RCK)>100; B represents 10<Kd(JAK2): Kd (RCK)<100; C represents 1<Kd (JAK2): Kd (RCK)<10; and D represents Kd(JAK2): Kd (RCK)<1.

T3 sequence (O60674 840-1132 limits assumed): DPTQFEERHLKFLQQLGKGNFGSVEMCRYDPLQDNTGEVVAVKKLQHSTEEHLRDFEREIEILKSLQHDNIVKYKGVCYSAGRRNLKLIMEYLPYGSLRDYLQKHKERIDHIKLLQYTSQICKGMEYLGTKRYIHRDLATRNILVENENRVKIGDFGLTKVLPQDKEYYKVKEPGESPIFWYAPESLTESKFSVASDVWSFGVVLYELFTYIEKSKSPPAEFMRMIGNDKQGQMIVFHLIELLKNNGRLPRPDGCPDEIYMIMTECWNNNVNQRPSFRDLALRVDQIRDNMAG

Turning to `Cc1cc(Nc2n[nH]c(NCc3cc(C)c(O)c(C)c3)c2C(N)=O)cnc1N1CCN(C)CC1` [Compound 14, 5-((4-hydroxy-3,5-dimethylbenzyl)amino)-3-((5-methyl-6-(4-methylpiperazin-1-yl)pyridin-3-yl)amino)-1H-pyrazole-4-carboxamide], the Kd in assay [1] is over 1 µM. Further, in assay [2], the Kd was over 1 µM and the “RCK:JAK3 selectivity ratio” value is recorded as “B (B represents 10<Kd (JAK3): Kd (RCK)<100)”. Also, in assay [3], the Kd is over 1 µM and the “RCK:JAK2 selectivity ratio” value is listed as “C (C represents 1<Kd (JAK2): Kd (RCK)<10)”.

Turning to `Cc1cc(CNc2[nH]nc(Nc3ccc(N4C[C@@H](C)O[C@@H](C)C4)c(Cl)c3)c2C(N)=O)cc(C)c1O` [Compound 15, 3-((3-chloro-4-(2,6-dimethylmorpholino)phenyl)amino)-5-((4-hydroxy-3,5-dimethylbenzyl)amino)-1H-pyrazole-4-carboxamide], the Kd in assay [1] is 0.05 to 0.1 µM. Besides, in assay [2], the Kd was over 1 µM and the “RCK:JAK3 selectivity ratio” value is listed as “B (B represents 10<Kd (JAK3): Kd (RCK)<100)”. In addition, in assay [3], the Kd is over 1 µM and the “RCK:JAK2 selectivity ratio” value is given as “B (B represents 10<Kd(JAK2): Kd (RCK)<100)”.

Regarding `Cc1cc(CNc2[nH]nc(Nc3ccc(-c4cccnc4)cc3)c2C(N)=O)cc(C)c1O` [Compound 16, 5-((4-hydroxy-3,5-dimethylbenzyl)amino)-3-((4-(pyridin-3-yl)phenyl)amino)-1H-pyrazole-4-carboxamide], the Kd in assay [1] is 0.05 to 0.1 µM. Also, in assay [2], the Kd was over 1 µM and the “RCK:JAK3 selectivity ratio” value is “B (B represents 10<Kd (JAK3): Kd (RCK)<100)”. Further, in assay [3], the Kd is over 1 µM and the “RCK:JAK2 selectivity ratio” value was “B (B represents 10<Kd(JAK2): Kd (RCK)<100)”.

Consider `Cc1cc(CNc2[nH]nc(Nc3ccc(N4CCN(C(C)C)CC4)c(Cl)c3)c2C(N)=O)cc(C)c1O` [Compound 17, 3-((3-chloro-4-(4-isopropylpiperazin-1-yl)phenyl)amino)-5-((4-hydroxy-3,5-dimethylbenzyl)amino)-1H-pyrazole-4-carboxamide], for which the Kd in assay [1] was under 0.05 µM. Also, in assay [2], the Kd is 0.1 to 1 µM and the “RCK:JAK3 selectivity ratio” value was “A (A represents Kd (JAK3): Kd (RCK)>100)”. Further, in assay [3], the Kd was 0.1 to 1 µM and the “RCK:JAK2 selectivity ratio” value is reported as “A (A represents Kd (JAK2): Kd (RCK)>100)”.

`Cc1cc(CNc2[nH]nc(Nc3ccc(-c4ccccc4)cc3)c2C(N)=O)cc(C)c1O` [Compound 18, 3-([1,1′-biphenyl]-4-ylamino)-5-((4-hydroxy-3,5-dimethylbenzyl)amino)-1H-pyrazole-4-carboxamide]: the Kd in assay [1], in assay [2] and in assay [3] was over 1 µM throughout. The “RCK:JAK3 selectivity ratio” value in assay [2] is listed as “C (C represents 1<Kd (JAK3): Kd (RCK)<10)”. Moreover, the “RCK:JAK2 selectivity ratio” value in assay [3] is listed as “C (C represents 1<Kd (JAK2): Kd (RCK)<10)”.

Take `Cc1cc(CNc2[nH]nc(Nc3ccc(-n4ccnc4)cc3)c2C(N)=O)cc(C)c1O` [Compound 19, 3-((4-(1H-imidazol-1-yl)phenyl)amino)-5-((4-hydroxy-3,5-dimethylbenzyl)amino)-1H-pyrazole-4-carboxamide]: the Kd in assay [1] was 0.1 to 1 µM. For the same compound, in assay [2], the Kd is over 1 µM and the “RCK:JAK3 selectivity ratio” value was “A (A represents Kd (JAK3): Kd (RCK)>100)”. Moreover, in assay [3], the Kd is over 1 µM and the “RCK:JAK2 selectivity ratio” value is listed as “A (A represents Kd (JAK2): Kd (RCK)>100)”.

In the case of `COc1ccc(Nc2n[nH]c(NCc3cc(C)c(O)c(C)c3)c2C(N)=O)cc1` [Compound 20, 5-((4-hydroxy-3,5-dimethylbenzyl)amino)-3-((4-methoxyphenyl)amino)-1H-pyrazole-4-carboxamide], in assay [1], the Kd lay in the range of 0.1 to 1 µM. In assay [2], the Kd was over 1 µM and the “RCK:JAK3 selectivity ratio” value is “B (B represents 10<Kd (JAK3): Kd (RCK)<100)”. Further, in assay [3], the Kd is over 1 µM and the “RCK:JAK2 selectivity ratio” value is on record as “C (C represents 1<Kd (JAK2): Kd (RCK)<10)”.

Take `Cc1cc(CNc2[nH]nc(Nc3ccc(C(C)(C)C)cc3)c2C(N)=O)cc(C)c1O` [Compound 21, 3-((4-(tert-butyl)phenyl)amino)-5-((4-hydroxy-3,5-dimethylbenzyl)amino)-1H-pyrazole-4-carboxamide]: the Kd in assay [1], in assay [2] and in assay [3] was over 1 µM throughout. For the same compound, the “RCK:JAK2 selectivity ratio” value in assay [3] is on record as “C (C represents 1<Kd (JAK2): Kd (RCK)<10)”.

For `Cc1cc(CNc2[nH]nc(Nc3ccc4[nH]ncc4c3)c2C(N)=O)cc(C)c1O` [Compound 22, 3-((1H-indazol-5-yl)amino)-5-((4-hydroxy-3,5-dimethylbenzyl)amino)-1H-pyrazole-4-carboxamide], the Kd in assay [1] is 0.1 to 1 µM. In assay [2], the Kd was over 1 µM and the “RCK:JAK3 selectivity ratio” value is “B (B represents 10<Kd (JAK3): Kd (RCK)<100)”. In addition, in assay [3], the Kd was over 1 µM and the “RCK:JAK2 selectivity ratio” value is reported as “C (C represents 1<Kd (JAK2): Kd (RCK)<10)”.

With `Cc1cc(CNc2[nH]nc(Nc3ccc(N4CCC(N5CCC(C)CC5)CC4)cc3)c2C(N)=O)cc(C)c1O` [Compound 23, 5-((4-hydroxy-3,5-dimethylbenzyl)amino)-3-((4-(4-methyl-[1,4′-bipiperidin]-1′-yl)phenyl)amino)-1H-pyrazole-4-carboxamide], in assay [1], the Kd is under 0.05 µM. In assay [2], the Kd is over 1 µM and the “RCK:JAK3 selectivity ratio” value is “B (B represents 10<Kd (JAK3): Kd (RCK)<100)”. Moreover, in assay [3], the Kd is over 1 µM and the “RCK:JAK2 selectivity ratio” value is on record as “B (B represents 10<Kd(JAK2): Kd (RCK)<100)”.

For `Cc1cc(CNc2[nH]nc(Nc3ccc(N4CCN(C(=O)N5CCCC5)CC4)cc3)c2C(N)=O)cc(C)c1O` [Compound 24, 5-((4-hydroxy-3,5-dimethylbenzyl)amino)-3-((4-(4-(pyrrolidine-1-carbonyl)piperazin-1-yl)phenyl)amino)-1H-pyrazole-4-carboxamide], the Kd in assay [1] was under 0.05 µM. Besides, in assay [2], the Kd was over 1 µM and the “RCK:JAK3 selectivity ratio” value was “A (A represents Kd (JAK3): Kd (RCK)>100)”. Also, in assay [3], the Kd is over 1 µM and the “RCK:JAK2 selectivity ratio” value is listed as “B (B represents 10<Kd(JAK2): Kd (RCK)<100)”.

`Cc1cc(CNc2[nH]nc(Nc3ccc(N4CCC(F)CC4)cc3)c2C(N)=O)cc(C)c1O` [Compound 25, 3-((4-(4-fluoropiperidin-1-yl)phenyl)amino)-5-((4-hydroxy-3,5-dimethylbenzyl)amino)-1H-pyrazole-4-carboxamide]: the Kd in assay [1] is 0.1 to 1 µM. In assay [2], the Kd is over 1 µM and the “RCK:JAK3 selectivity ratio” value is recorded as “B (B represents 10<Kd (JAK3): Kd (RCK)<100)”. In assay [3], the Kd was over 1 µM and the “RCK:JAK2 selectivity ratio” value is given as “C (C represents 1<Kd (JAK2): Kd (RCK)<10)”.

As to `Cc1cc(CNc2[nH]nc(Nc3ccc(N4C[C@@H](C)O[C@@H](C)C4)nc3)c2C(N)=O)cc(C)c1O` [Compound 26], the Kd in assay [1] lay within 0.1 to 1 µM. Moreover, in assay [2], the Kd is over 1 µM and the “RCK:JAK3 selectivity ratio” value was “B (B represents 10<Kd (JAK3): Kd (RCK)<100)”. Besides, in assay [3], the Kd is over 1 µM and the “RCK:JAK2 selectivity ratio” value is on record as “B (B represents 10<Kd(JAK2): Kd (RCK)<100)”.

For `Cc1cc(CNc2[nH]nc(Nc3ccc(N4CCCCC4)cc3)c2C(N)=O)cc(C)c1O` [Compound 27, 5-((4-hydroxy-3,5-dimethylbenzyl)amino)-3-((4-(piperidin-1-yl)phenyl)amino)-1H-pyrazole-4-carboxamide], the Kd in assay [1] was 0.1 to 1 µM. In addition, in assay [2], the Kd is over 1 µM and the “RCK:JAK3 selectivity ratio” value is recorded as “B (B represents 10<Kd (JAK3): Kd (RCK)<100)”. In assay [3], the Kd is over 1 µM and the “RCK:JAK2 selectivity ratio” value is “B (B represents 10<Kd(JAK2): Kd (RCK)<100)”.
